From patent US8389440B2, “Synergistic insecticide mixtures” (Bayer Cropscience AG, priority 2002, dated 2013)

Columns and labels:
[1] = tested on: diamond-back moth caterpillars (Plutella xylostella, resistant strain); details: found effect, dipped cabbage leaves
Experimental: Plutella Test, Resistant Strain
After the desired period, the destruction in % is determined. 100% means that all of the caterpillars have been destroyed; 0% means that no caterpillars have been destroyed.

[2] = tested on: army worm caterpillars (Spodoptera frugiperda); experiment: Spodoptera frugiperda test; format: in vivo; details: found effect, dipped cabbage leaves
From the text: Spodoptera Frugiperda Test

[3] = tested on: mustard beetle larvae (Phaedon cochleariae); experiment: Phaedon larvae test; format: in vivo; details: found effect, dipped cabbage leaves
[4] = tested on: Heliothis armigera caterpillars; experiment: Heliothis armigera test; format: in vivo; details: found effect, dipped soya bean shoots

| Molecule | LC50 after 6 days [1] | LC50 after 6 days [2] | LC95 after 3 days [3] | LC50 after 6 days [4] |
| --- | --- | --- | --- | --- |
| emamectin benzoate | 0.174 ppm |  |  |  |
| CN/C(=N\[N+](=O)[O-])NCC1CCOC1 (centres unmarked) [Dinotefuran, dinotefuran] | 27.621 ppm | 2.861 ppm | 42.07 ppm | 13.165 ppm |
| CC[C@H](C)[C@H]1O[C@]2(C=C[C@@H]1C)C[C@@H]1C[C@@H](C/C=C(\C)[C@@H](O[C@H]3C[C@H](OC)[C@@H](O[C@H]4C[C@H](OC)[C@@H](O)[C@H](C)O4)[C@H](C)O3)[C@@H](C)/C=C/C=C3\CO[C@@H]4[C@H](O)C(C)=C[C@@H](C(=O)O1)[C@]34O)O2 [Avermectin, abamectin] |  | 5.553 ppm | 0.281 ppm | 0.014 ppm |
